Test results: patent publication US20250381179A1, “CHROMAN-BASED COMPOUNDS FOR TREATING CANCER” (priority 2024, published 2025)

Assay: Phase 1 study: safety and tolerability (TEAEs, NCI CTCAE v5.0)
Method: The study employed an open-label, 3+3 design, with the option of adding backfill patients to each cohort cleared and deemed safe. […] Tumor responses were assessed every 2 cycles using RECIST v1.1 criteria. […] The study also involves an ongoing dose escalation study where participants receive 100 mg, 200 mg, 300 mg, 400 mg, and 600 mg once daily (QD) dose levels.
Safety was assessed through the analysis of the reported incidence of treatment-emergent AEs. Treatment-emergent AEs are those with an onset on or after the initiation of therapy and will be graded according to NCI CTCAE Version 5.0. Other safety endpoints, including laboratory results, vital signs, and ECG findings, were summarized for all patients in the Safety set.

O=C1CC[C@H](N2Cc3cc(N4CCN(CC5CCN(c6ccc([C@@H]7c8ccc(O)cc8OC[C@@H]7c7ccccc7)cc6F)CC5)CC4)ccc3C2=O)C(=O)N1 [compound (1-g), (S)-3-(5-(4-((1-(2-fluoro-4-((3S,4R)-7-hydroxy-3-phenylchroman-4-yl)phenyl)piperidin-4-yl)methyl)piperazin-1-yl)-1-oxoisoindolin-2-yl)piperidine-2,6-dione]
TEAE: Urinary Tract Infection (200 mg QD (N = 12)): 1 (8.3) n (%) | TEAE: Vaginal Haemorrhage (200 mg QD (N = 12)): 0 n (%) | TEAE: Vomiting (200 mg QD (N = 12)): 1 (8.3) n (%) | related TEAE: Alopecia (200 mg QD (N = 12)): 0 n (%) | related TEAE: Arthralgia (200 mg QD (N = 12)): 1 (8.3) n (%) | related TEAE: Constipation (200 mg QD (N = 12)): 0 n (%) | related TEAE: Diarrhea (200 mg QD (N = 12)): 0 n (%) | related TEAE: Dysgeusia (200 mg QD (N = 12)): 0 n (%) | related TEAE: Eructation (200 mg QD (N = 12)): 0 n (%) | related TEAE: Fatigue (200 mg QD (N = 12)): 1 (8.3) n (%) | related TEAE: Flatulence (200 mg QD (N = 12)): 0 n (%) | related TEAE: Hot Flush (200 mg QD (N = 12)): 1 (8.3) n (%) | related TEAE: Hyperhidrosis (200 mg QD (N = 12)): 0 n (%) | related TEAE: Nail Disorder (200 mg QD (N = 12)): 0 n (%) | related TEAE: Nausea (200 mg QD (N = 12)): 0 n (%) | related TEAE: Neutrophil Count Decreased (200 mg QD (N = 12)): 0 n (%) | related TEAE: Platelet Count Decreased (200 mg QD (N = 12)): 0 n (%) | related TEAE: Tremor (200 mg QD (N = 12)): 0 n (%) | related TEAE: Vomiting (200 mg QD (N = 12)): 0 n (%) | Patients with Any Compound (1-g) related TEAE (300 mg QD (N = 11)): 5 (45.5) n (%) | Patients with Any TEAE (300 mg QD (N = 11)): 8 (72.7) n (%) | TEAE: Abdominal Distension (300 mg QD (N = 11)): 1 (9.1) n (%) | TEAE: Abdominal Pain (300 mg QD (N = 11)): 0 n (%) | TEAE: Acute Kidney Injury (300 mg QD (N = 11)): 1 (9.1) n (%) | TEAE: Adrenal Insufficiency (300 mg QD (N = 11)): 0 n (%) | TEAE: Alopecia (300 mg QD (N = 11)): 0 n (%) | TEAE: Anaemia (300 mg QD (N = 11)): 1 (9.1) n (%) | TEAE: Anxiety (300 mg QD (N = 11)): 1 (9.1) n (%) | TEAE: Arthralgia (300 mg QD (N = 11)): 0 n (%) | TEAE: Axillary Vein Thrombosis (300 mg QD (N = 11)): 0 n (%) | TEAE: Back Pain (300 mg QD (N = 11)): 1 (9.1) n (%) | TEAE: Basal Cell Carcinoma (300 mg QD (N = 11)): 0 n (%) | TEAE: Breast Pain (300 mg QD (N = 11)): 0 n (%) | TEAE: Confusional State (300 mg QD (N = 11)): 0 n (%) | TEAE: Constipation (300 mg QD (N = 11)): 1 (9.1) n (%) | TEAE: Cough (300 mg QD (N = 11)): 0 n (%) | TEAE: Covid-19 Pneumonia (300 mg QD (N = 11)): 0 n (%) | TEAE: Dehydration (300 mg QD (N = 11)): 1 (9.1) n (%) | TEAE: Diarrhoea (300 mg QD (N = 11)): 1 (9.1) n (%) | TEAE: Dizziness (300 mg QD (N = 11)): 1 (9.1) n (%) | TEAE: Dysgeusia (300 mg QD (N = 11)): 0 n (%) | TEAE: Dyspepsia (300 mg QD (N = 11)): 0 n (%) | TEAE: Dyspnoea (300 mg QD (N = 11)): 1 (9.1) n (%) | TEAE: Dysuria (300 mg QD (N = 11)): 1 (9.1) n (%) | TEAE: Eructation (300 mg QD (N = 11)): 0 n (%) | TEAE: Fall (300 mg QD (N = 11)): 0 n (%) | TEAE: Fatigue (300 mg QD (N = 11)): 1 (9.1) n (%) | TEAE: Flatulence (300 mg QD (N = 11)): 1 (9.1) n (%) | TEAE: Fracture (300 mg QD (N = 11)): 0 n (%) | TEAE: Fungal Infection (300 mg QD (N = 11)): 1 (9.1) n (%) | TEAE: Haematoma (300 mg QD (N = 11)): 1 (9.1) n (%) | TEAE: Hot Flush (300 mg QD (N = 11)): 2 (18.2) n (%) | TEAE: Hyperglycaemia (300 mg QD (N = 11)): 0 n (%) | TEAE: Hyperhidrosis (300 mg QD (N = 11)): 0 n (%) | TEAE: Hypokalaemia (300 mg QD (N = 11)): 1 (9.1) n (%) | TEAE: Hypotension (300 mg QD (N = 11)): 0 n (%) | TEAE: Influenza Like Illness (300 mg QD (N = 11)): 0 n (%) | TEAE: Insomnia (300 mg QD (N = 11)): 0 n (%) | TEAE: Lower Respiratory Tract Congestion (300 mg QD (N = 11)): 0 n (%) | TEAE: Lymphocyte Count Decreased (300 mg QD (N = 11)): 0 n (%) | TEAE: Muscle Spasm (300 mg QD (N = 11)): 0 n (%) | TEAE: Muscular Weakness (300 mg QD (N = 11)): 0 n (%) | TEAE: Musculoskeletal Stiffness (300 mg QD (N = 11)): 0 n (%) | TEAE: Nail Disorder (300 mg QD (N = 11)): 0 n (%) | TEAE: Nasal Congestion (300 mg QD (N = 11)): 0 n (%) | TEAE: Nausea (300 mg QD (N = 11)): 4 (36.4) n (%) | TEAE: Neutrophil Count Decreased (300 mg QD (N = 11)): 1 (9.1) n (%) | TEAE: Oedema Peripheral (300 mg QD (N = 11)): 1 (9.1) n (%) | TEAE: Ophthalmic Migraine (300 mg QD (N = 11)): 0 n (%) | TEAE: Oral Pain (300 mg QD (N = 11)): 1 (9.1) n (%) | TEAE: Pain In Extremity (300 mg QD (N = 11)): 0 n (%) | TEAE: Pharyngitis (300 mg QD (N = 11)): 0 n (%) | TEAE: Platelet Count Decreased (300 mg QD (N = 11)): 1 (9.1) n (%) | TEAE: Pleural Effusion (300 mg QD (N = 11)): 1 (9.1) n (%) | TEAE: Pneumonia (300 mg QD (N = 11)): 0 n (%) | TEAE: Productive Cough (300 mg QD (N = 11)): 0 n (%) | TEAE: Rash Maculo-Papular (300 mg QD (N = 11)): 0 n (%) | TEAE: Rhinitis Allergic (300 mg QD (N = 11)): 1 (9.1) n (%) | TEAE: Rib Fracture (300 mg QD (N = 11)): 0 n (%) | TEAE: Seizure (300 mg QD (N = 11)): 0 n (%) | TEAE: Sepsis (300 mg QD (N = 11)): 0 n (%) | TEAE: Tremor (300 mg QD (N = 11)): 1 (9.1) n (%) | TEAE: Upper Respiratory Tract Infection (300 mg QD (N = 11)): 1 (9.1) n (%) | TEAE: Urinary Tract Infection (300 mg QD (N = 11)): 1 (9.1) n (%) | TEAE: Vaginal Haemorrhage (300 mg QD (N = 11)): 1 (9.1) n (%) | TEAE: Vomiting (300 mg QD (N = 11)): 1 (9.1) n (%) | related TEAE: Alopecia (300 mg QD (N = 11)): 0 n (%) | related TEAE: Arthralgia (300 mg QD (N = 11)): 0 n (%) | related TEAE: Constipation (300 mg QD (N = 11)): 1 (9.1) n (%) | related TEAE: Diarrhea (300 mg QD (N = 11)): 1 (9.1) n (%) | related TEAE: Dysgeusia (300 mg QD (N = 11)): 0 n (%) | related TEAE: Eructation (300 mg QD (N = 11)): 0 n (%) | related TEAE: Fatigue (300 mg QD (N = 11)): 1 (9.1) n (%) | related TEAE: Flatulence (300 mg QD (N = 11)): 0 n (%) | related TEAE: Hot Flush (300 mg QD (N = 11)): 2 (18.2) n (%) | related TEAE: Hyperhidrosis (300 mg QD (N = 11)): 0 n (%) | related TEAE: Nail Disorder (300 mg QD (N = 11)): 0 n (%) | related TEAE: Nausea (300 mg QD (N = 11)): 3 (27.3) n (%) | related TEAE: Neutrophil Count Decreased (300 mg QD (N = 11)): 0 n (%) | related TEAE: Platelet Count Decreased (300 mg QD (N = 11)): 0 n (%) | related TEAE: Tremor (300 mg QD (N = 11)): 0 n (%) | related TEAE: Vomiting (300 mg QD (N = 11)): 1 (9.1) n (%) | Patients with Any Compound (1-g) related TEAE (400 mg QD (N = 6)): 3 (50.0) n (%) | Patients with Any TEAE (400 mg QD (N = 6)): 4 (66.7) n (%) | TEAE: Abdominal Distension (400 mg QD (N = 6)): 0 n (%) | TEAE: Abdominal Pain (400 mg QD (N = 6)): 0 n (%) | TEAE: Acute Kidney Injury (400 mg QD (N = 6)): 0 n (%) | TEAE: Adrenal Insufficiency (400 mg QD (N = 6)): 0 n (%) | TEAE: Alopecia (400 mg QD (N = 6)): 1 (16.7) n (%) | TEAE: Anaemia (400 mg QD (N = 6)): 0 n (%) | TEAE: Anxiety (400 mg QD (N = 6)): 0 n (%) | TEAE: Arthralgia (400 mg QD (N = 6)): 0 n (%) | TEAE: Axillary Vein Thrombosis (400 mg QD (N = 6)): 0 n (%) | TEAE: Back Pain (400 mg QD (N = 6)): 0 n (%) | TEAE: Basal Cell Carcinoma (400 mg QD (N = 6)): 0 n (%) | TEAE: Breast Pain (400 mg QD (N = 6)): 0 n (%) | TEAE: Confusional State (400 mg QD (N = 6)): 0 n (%) | TEAE: Constipation (400 mg QD (N = 6)): 1 (16.7) n (%) | TEAE: Cough (400 mg QD (N = 6)): 0 n (%) | TEAE: Covid-19 Pneumonia (400 mg QD (N = 6)): 0 n (%) | TEAE: Dehydration (400 mg QD (N = 6)): 0 n (%) | TEAE: Diarrhoea (400 mg QD (N = 6)): 1 (16.7) n (%) | TEAE: Dizziness (400 mg QD (N = 6)): 0 n (%) | TEAE: Dysgeusia (400 mg QD (N = 6)): 1 (16.7) n (%) | TEAE: Dyspepsia (400 mg QD (N = 6)): 0 n (%) | TEAE: Dyspnoea (400 mg QD (N = 6)): 1 (16.7) n (%) | TEAE: Dysuria (400 mg QD (N = 6)): 0 n (%) | TEAE: Eructation (400 mg QD (N = 6)): 1 (16.7) n (%) | TEAE: Fall (400 mg QD (N = 6)): 0 n (%) | TEAE: Fatigue (400 mg QD (N = 6)): 2 (33.3) n (%) | TEAE: Flatulence (400 mg QD (N = 6)): 1 (16.7) n (%) | TEAE: Fracture (400 mg QD (N = 6)): 0 n (%) | TEAE: Fungal Infection (400 mg QD (N = 6)): 0 n (%) | TEAE: Haematoma (400 mg QD (N = 6)): 0 n (%) | TEAE: Hot Flush (400 mg QD (N = 6)): 0 n (%) | TEAE: Hyperglycaemia (400 mg QD (N = 6)): 0 n (%) | TEAE: Hyperhidrosis (400 mg QD (N = 6)): 0 n (%) | TEAE: Hypokalaemia (400 mg QD (N = 6)): 0 n (%) | TEAE: Hypotension (400 mg QD (N = 6)): 1 (16.7) n (%) | TEAE: Influenza Like Illness (400 mg QD (N = 6)): 0 n (%) | TEAE: Insomnia (400 mg QD (N = 6)): 1 (16.7) n (%) | TEAE: Lower Respiratory Tract Congestion (400 mg QD (N = 6)): 0 n (%) | TEAE: Lymphocyte Count Decreased (400 mg QD (N = 6)): 0 n (%) | TEAE: Muscle Spasm (400 mg QD (N = 6)): 1 (16.7) n (%) | TEAE: Muscular Weakness (400 mg QD (N = 6)): 1 (16.7) n (%) | TEAE: Musculoskeletal Stiffness (400 mg QD (N = 6)): 0 n (%) | TEAE: Nail Disorder (400 mg QD (N = 6)): 1 (16.7) n (%) | TEAE: Nasal Congestion (400 mg QD (N = 6)): 0 n (%)
